Laboratory results from patent publication US20220220106A1, “QUINOLINE COMPOUNDS AND PHARMACEUTICAL COMPOSITIONS AND USES THEREOF” (Academy of Military Medical Sciences, priority 2019, published 2022).

Experiments:
[1] = tested on: RD cells; assay: Detection of cytotoxicity in RD cells (CellTiter-Glo); format: cell-based; details: 4 days, CellTiter-Glo, median toxic dose
Method: Detection of Cytotoxicity:
(1) The compound to be tested was diluted to a concentration of 400 μM with the cell maintenance solution, and 3-fold gradient dilution was carried out to obtain 10 concentrations in total.
(2) The diluted compound was added to a 96-well plate with white wall and transparent bottom, with 100 μL per well. An equal volume of the cell maintenance solution was added to the cell control group.
(3) RD cells were inoculated into the above 96-well plate at a concentration of 1*10^5/mL, with 100 μL per well, to reach a final volume of 200 μL per well, and the final concentration of drug was 0.5 times the pretreatment concentration.
(4) The RD cells were cultured at 37° C. for 4 days for testing.
(5) The Buffer of CellTiter-Glo® luminescent cell viability assay reagent was mixed with the substrate in the dark to prepare a working solution.
(§1) (6) The culture medium in the plate was discarded, the plate was dried by patting, 100 μL of the detection reagent was added to each well, and the 96-well plate was shaken on an orbital shaker for 4 minutes to induce cell lysis. After keeping in the dark and subjecting to signal stabilization for 15 minutes, the chemiluminescence unit was detected, and the plate reading program was performed according to the CellTiter-Glo preset program.
(§2) The formula for calculating the inhibition rates of drug at different dilution degrees was as follows: inhibition rate (%)=(average value of cell control group−value of experimental group)/(average value of cell control group−minimum value of experimental group)*100
(§3) The inhibition rate-concentration curve was fitted to S-curve by using origin8.0 software, and the IC50 value of the compound to be tested was calculated. The same method was used to calculate the TD50 value, and the selection index SI=TD50/IC50 was calculated according to the half maximal inhibitory concentration IC50 and the median toxic dose TD50.

[2] = tested on: Enterovirus 71 (EV71) H strain; assay: In vitro anti-EV71 activity (antiviral activity in RD cells, CellTiter-Glo); format: cell-based; details: for IC50: Enterovirus A, 96 h, EV71 H strain, RD cells, 4 days, CellTiter-Glo, read-out: IC50; for in vitro anti-EV71 activity, in words: EV71, RD cells
Method: According to the mass and molecular weight of the compound to be tested, the compound to be tested was dissolved to 100 mM (mmol/L) with DMSO.
Detection of Antiviral Activity:
(1) First, the compound to be tested was diluted to 800 μM with cell maintenance solution (DMEM+2% FBS, Gibco, catalog numbers: 11995-065, 1600-044), and three-fold gradient dilution was performed to prepare 10 concentrations in total. The diluted compound was added to a 96-well plate with white wall and transparent bottom, 50 μl per well. To both the cell control group and the virus control group, an equal volume of the cell maintenance solution was added.
(2) EV71 virus (purchased from ATCC) was taken out from the −80° C. refrigerator and equilibrated to room temperature.
(3) The virus seed was diluted with a virus growth solution (DMEM+2% FBS, Gibco, catalog numbers: 11995-065, 1600-044) to 100TCID50, the diluted virus seed was added to the 96-well plate of (1), with […] per well. The same volume of the virus growth solution was added to the cell control group.
(4) RD cells (purchased from ATCC) were inoculated at a concentration of 1*10^5/mL into the 96-well plate of (1), with 100 μL per well, to reach a final volume of 200 μL per well. The final concentration of drug was 0.25 times the initial concentration.
(5) RD cells were cultured at 37° C. for 4 days for testing.
(6) The Buffer of CellTiter-Glo® luminescent cell viability assay reagent (Promega) was mixed with the substrate in the dark to prepare a working solution.
as §1, with “(7)” for “(6)”, “detected by using MD5 microplate reader (Molecular Devices),” for “detected,”
The inhibition rate-concentration curve was fitted to S-curve by using origin8.0 software to calculate the IC50 value of the compound to be tested.
as §2, §3

| SMILES | IC50 [2] | melting point | TD50 [1] | in vitro anti-EV71 activity, in words [2] |
| --- | --- | --- | --- | --- |
| O=c1oc2cnc3ccc(-c4cnc5ccccc5c4)cc3c2n1-c1cccc(C(F)(F)F)c1 [HTL-5-32, 8-(3-quinolyl)-1-[3-(trifluoromethyl)phenyl]oxazolo[5,4-c]quinolin-2(1H)-one] | > 200 µM | 242 to 244 °C | 68.88 ± 0.13 µM |  |
| CCOc1cccc(-c2ccc3ncc(/C=C/C(C)=O)c(Nc4cccc(C(F)(F)F)c4)c3c2)c1 [HTL-3-16, (E)-6-(3-ethoxy)phenyl-4-[3-(trifluoromethyl)phenyl]aminoquinoline-3-butenone] | > 200 µM | 184 to 185 °C | 0.83 ± 0.79 µM |  |
| CC(=O)/C=C/c1cnc2ccc(-c3ccc(C#N)cc3)cc2c1Nc1cccc(C(F)(F)F)c1 [HTL-3-15, (E)-6-(4-cyano)phenyl-4-[3-(trifluoromethyl)phenyl]aminoquinoline-3-butenone] | > 200 µM | 173 to 174 °C | >200 µM |  |
| CC(C)(C)c1ccc(Nc2ccc3ncc4ccc(=O)n(-c5cccc(C(F)(F)F)c5)c4c3c2)cc1 [HTL-6-18, 9-(4-tert-butylphenyl)imino-2-oxo-1-[3-(trifluoromethyl)phenyl]-1,2-dihydrobenzo[h][1,6]naphthyridine] | > 200 µM | 141 to 142 °C | 7.04 ± 0.68 µM |  |
| CC(=O)/C=C/c1cnc2ccc(-c3ccc(N)nc3)cc2c1Nc1cccc(C(F)(F)F)c1 [HTL-2-34, (E)-6-[3-(6-amino)pyridyl]-4-[3-(trifluoromethyl)phenyl]aminoquinoline-3-butenone] | 1.78 ± 0.03 µM | 172 to 175 °C | 4.99 ± 1.55 µM | moderate anti-EV71 activity |
| CC(=O)/C=C/c1cnc2ccc(-c3cncc(C#N)c3)cc2c1Nc1cccc(C(F)(F)F)c1 [HTL-3-46, (E)-6-[3-(5-cyano)pyridyl]-4-[3-(trifluoromethyl)phenyl]aminoquinoline-3-butenone] | > 200 µM | 227 to 229 °C | 3.59 ± 2.46 µM |  |
| O=c1oc2cnc3ccc(-c4ccc(C(F)(F)F)cc4)cc3c2n1-c1cccc(C(F)(F)F)c1 [HTL-5-29, 8-(4-trifluoromethyl)phenyl-1-[3-(trifluoromethyl)phenyl]oxazolo[5,4-c]quinolin-2(1H)-one] | > 200 µM | 265 to 266 °C | >200 µM |  |
| C#CCNc1ccc(-c2ccc3ncc4ccc(=O)n(-c5cccc(C(F)(F)F)c5)c4c3c2)cn1 [HTL-7-29, 9-[3-(6-propargylamino)pyridyl]-2-oxo-1-[3-(trifluoromethyl)phenyl]-1,2-dihydrobenzo[h][1,6]naphthyridine] | 0.09 µM | 139 to 141 °C | 0.29 ± 0.03 µM |  |
| NC(=O)/C=C/c1ccc2ncc3ccc(=O)n(-c4cccc(C(F)(F)F)c4)c3c2c1 [HTL-7-24, (E)-9-(2-carbamoyl-vinyl)-2-oxo-1-[3-(trifluoromethyl)phenyl]-1,2-dihydrobenzo[h][1,6]naphthyridine] | 0.09 ± 0.01 µM | 307 to 308 °C | 0.15 ± 0.01 µM | strong inhibitory activity |
| CC(C)(C)OC(=O)/C=C/c1ccc2ncc3oc(=O)n(-c4cccc(C(F)(F)F)c4)c3c2c1 [HTL-6-35, (E)-8-(2-tert-butoxycarbonyl-vinyl)-1-[3-(trifluoromethyl)phenyl]oxazolo[5,4-c]quinolin-2(1H)-one] | > 200 µM | 186 to 187 °C | 76.02 ± 11.52 µM |  |
| O=c1oc2cnc3ccc(-c4ccoc4)cc3c2n1-c1cccc(C(F)(F)F)c1 [HTL-5-25, 8-(3-furyl)-1-[3-(trifluoromethyl)phenyl]oxazolo[5,4-c]quinolin-2(1H)-one] | > 200 µM | 276 to 277 °C | >200 µM |  |
| N#Cc1ccc(Nc2ccc3ncc4ccc(=O)n(-c5cccc(C(F)(F)F)c5)c4c3c2)cc1 [HTL-6-22, 9-(4-cyanophenyl)imino-2-oxo-1-[3-(trifluoromethyl)phenyl]-1,2-dihydrobenzo[h][1,6]naphthyridine] | > 200 µM | 259 to 260 °C | 6.95 ± 0.86 µM |  |
| CCOC(=O)CC/C=C/c1ccc2ncc3oc(=O)n(-c4cccc(C(F)(F)F)c4)c3c2c1 [HTL-6-38, (E)-8-(4-ethoxycarbonyl-but-1-enyl)-1-[3-(trifluoromethyl)phenyl]oxazolo [5,4-c]quinolin-2(1H)-one] | > 200 µM | 162 to 164 °C | 22.74 ± 0.01 µM |  |

More lines, main results first:

| IC50 [2] | melting point | SMILES | TD50 [1] | in vitro anti-EV71 activity, in words [2] |
| --- | --- | --- | --- | --- |
| > 200 µM | 209 to 210 °C | CC(=O)/C=C/c1cnc2ccc(-c3ccc(F)c(C)c3)cc2c1Nc1cccc(C(F)(F)F)c1 [HTL-3-32, (E)-6-(4-fluoro-3-methyl)phenyl-4-[3-(trifluoromethyl)phenyl]aminoquinoline-3-butenone] | 1.52 ± 0.87 µM |  |
| > 200 µM | 184 to 186 °C | CC(=O)/C=C/c1cnc2ccc(-c3cccc(N)c3)cc2c1Nc1cccc(C(F)(F)F)c1 [HTL-2-42, (E)-6-(3-aminophenyl)-4-[3-(trifluoromethyl)phenyl]aminoquinoline-3-butenone] | >200 µM |  |
| 3.7 ± 0.03 µM | 192 to 194 °C | Nc1cncc(Nc2ccc3ncc4ccc(=O)n(-c5cccc(C(F)(F)F)c5)c4c3c2)n1 [HTL-6-28, 9-[2-(6-aminopyrazinyl)]imino-2-oxo-1-[3-(trifluoromethyl)phenyl]-1,2-dihydrobenzo[h][1,6]naphthyridine] | 8.67 ± 0.97 µM | moderate activity |
| > 200 µM | 257 to 258 °C | COc1cncc(-c2ccc3ncc4oc(=O)n(-c5cccc(C(F)(F)F)c5)c4c3c2)c1 [HTL-5-30, 8-[3-(5-methoxy)pyridyl]-1-[3-(trifluoromethyl)phenyl]oxazolo[5,4-c]quinolin-2(1H)-one] | 68.52 ± 0.42 µM |  |
| > 200 µM | 210 to 211 °C | Cc1cc(Nc2ccc3ncc4ccc(=O)n(-c5cccc(C(F)(F)F)c5)c4c3c2)ccc1F [HTL-6-24, 9-[(4-fluoro-3-methyl)phenyl]imino-2-oxo-1-[3-(trifluoromethyl)phenyl]-1,2-dihydrobenzo[h][1,6]naphthyridine] | 7.2 ± 0.33 µM |  |
| > 200 µM | 212 to 213 °C | O=c1ccc2cnc3ccc(Nc4ccc(Cl)cc4)cc3c2n1-c1cccc(C(F)(F)F)c1 [HTL-6-25, 9-(4-chlorophenyl)imino-2-oxo-1-[3-(trifluoromethyl)phenyl]-1,2-dihydrobenzo[h][1,6]naphthyridine] | 4.56 ± 0.26 µM |  |
| > 200 µM | 220 to 221 °C | CCCc1ccc(-c2ccc3ncc4oc(=O)n(-c5cccc(C(F)(F)F)c5)c4c3c2)cc1 [HTL-5-34, 8-(4-propyl)phenyl-1-[3-(trifluoromethyl)phenyl]oxazolo[5,4-c]quinolin-2(1H)-one] | >200 µM |  |
| > 200 µM | 133 to 134 °C | CC(=O)/C=C/c1cnc2ccc(-c3ccc(F)nc3)cc2c1Nc1cccc(C(F)(F)F)c1 [HTL-3-43, (E)-6-[3-(6-fluoro)pyridyl]-4-[3-(trifluoromethyl)phenyl]aminoquinoline-3-butenone] | 2.23 ± 0.08 µM |  |
